“Also recorded” adds a separate entry of the source. Non-standard residues stand in square brackets, D forms with d. Residues, ends and D or L forms follow the SMILES beside them. Dap = NC[C@H](N)C(=O)O
How the values were obtained:
mMC5R = mMC5R (Mus musculus, UniProt P41149); test: cAMP AlphaScreen agonist assay, HEK293 cells stably expressing mouse MC5R; conditions: for EC50: read-out: mMC5R EC50, agonist, cAMP; for agonist activity/efficacy at mMC5R (in words): concentrations up to 100 μM
mMC4R = mMC4R (Mus musculus, UniProt P56450); test: cAMP AlphaScreen agonist assay, HEK293 cells stably expressing mouse MC4R; conditions: for agonist activity/efficacy at mMC4R (in words): concentrations up to 100 μM; for mMC4R percent maximal stimulatory response at 100 μM: no EC50 determinable, relative to NDP-MSH; for EC50: read-out: mMC4R EC50, agonist, cAMP; for selectivity for the mMC4R over the mMC3R: agonist potency
mMC1R = mMC1R (Mus musculus, UniProt Q01727); test: cAMP AlphaScreen agonist assay, HEK293 cells stably expressing mouse MC1R; conditions: for EC50: read-out: mMC1R EC50, agonist, cAMP; for agonist activity/efficacy at mMC1R (in words): concentrations up to 100 μM
mMC3R = mMC3R (Mus musculus, UniProt P33033); test: cAMP AlphaScreen agonist assay, HEK293 cells stably expressing mouse MC3R; conditions: for mMC3R percent maximal stimulatory response at 100 μM: no EC50 determinable, relative to NDP-MSH; for agonist activity/efficacy at mMC3R (in words): concentrations up to 100 μM; for EC50: read-out: mMC3R EC50, agonist, cAMP
mMC3R, sequence (P33033 whole entry): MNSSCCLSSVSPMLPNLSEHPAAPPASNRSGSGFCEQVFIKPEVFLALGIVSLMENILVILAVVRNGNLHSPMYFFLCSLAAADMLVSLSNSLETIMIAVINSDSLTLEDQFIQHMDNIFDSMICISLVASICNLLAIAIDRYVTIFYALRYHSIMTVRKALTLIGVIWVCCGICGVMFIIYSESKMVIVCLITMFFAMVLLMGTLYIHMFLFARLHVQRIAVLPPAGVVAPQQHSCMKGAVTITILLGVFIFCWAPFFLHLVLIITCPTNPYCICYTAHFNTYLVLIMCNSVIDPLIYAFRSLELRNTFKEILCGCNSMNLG

mMC5R, sequence (P41149 whole entry): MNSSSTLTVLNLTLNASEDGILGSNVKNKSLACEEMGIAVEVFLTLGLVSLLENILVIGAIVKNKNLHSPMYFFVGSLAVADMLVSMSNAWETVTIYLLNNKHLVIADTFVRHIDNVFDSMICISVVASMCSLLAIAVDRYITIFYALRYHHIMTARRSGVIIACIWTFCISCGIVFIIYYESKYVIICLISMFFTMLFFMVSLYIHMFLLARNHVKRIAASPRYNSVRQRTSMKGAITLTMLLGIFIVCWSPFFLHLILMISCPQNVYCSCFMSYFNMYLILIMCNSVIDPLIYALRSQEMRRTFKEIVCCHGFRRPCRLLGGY
mMC1R, sequence (Q01727 whole entry): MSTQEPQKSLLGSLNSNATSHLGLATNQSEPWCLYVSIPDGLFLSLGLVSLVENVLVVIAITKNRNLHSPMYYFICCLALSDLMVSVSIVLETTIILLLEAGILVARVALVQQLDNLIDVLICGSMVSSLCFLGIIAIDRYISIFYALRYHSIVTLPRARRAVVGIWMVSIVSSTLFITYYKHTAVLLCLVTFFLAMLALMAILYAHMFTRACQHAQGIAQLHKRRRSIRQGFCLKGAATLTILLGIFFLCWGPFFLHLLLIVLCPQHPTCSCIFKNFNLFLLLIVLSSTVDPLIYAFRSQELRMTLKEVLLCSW
mMC4R, sequence (P56450 whole entry): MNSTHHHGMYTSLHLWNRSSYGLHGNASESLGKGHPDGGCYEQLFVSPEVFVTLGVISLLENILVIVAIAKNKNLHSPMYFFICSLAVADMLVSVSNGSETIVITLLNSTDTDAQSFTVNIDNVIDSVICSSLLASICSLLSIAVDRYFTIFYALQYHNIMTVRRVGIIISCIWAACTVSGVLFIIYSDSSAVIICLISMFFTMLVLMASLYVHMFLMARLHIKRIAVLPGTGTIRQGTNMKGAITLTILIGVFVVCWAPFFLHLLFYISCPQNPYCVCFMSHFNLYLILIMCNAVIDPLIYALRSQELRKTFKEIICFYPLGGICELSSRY

| EC50 (mMC1R) [nM] | EC50 (mMC5R) [nM] | agonist activity/efficacy at mMC3R (in words) (mMC3R) | EC50 (mMC4R) [nM] | decreased agonist potency at mMC1R relative to MDE5-149-2c (mMC1R) [fold] | EC50 (mMC3R) [nM] | SMILES | agonist activity/efficacy at mMC4R (in words) (mMC4R) | other results |
| --- | --- | --- | --- | --- | --- | --- | --- | --- |
| 1800 |  |  |  |  |  | N=C(N)NCCC[C@@H]1NC(=O)[C@@H](Cc2ccccc2)NC(=O)[C@@H]2CCCN2C(=O)[C@H]2CCCN2C(=O)[C@H](Cc2c[nH]c3ccccc23)NC1=O [MDE5-147-1c, c[Pro-DPhe-Arg-Trp-DPro]] (cyclo(P[dF]RW[dP])) | stimulated a fraction of the maximal NDP-MSH response | mMC5R percent maximal stimulatory response at 100 μM (mMC5R; 100 μM, no EC50 determinable, relative to NDP-MSH): 75% @ |
| 900 ± 200 | 6000 | partially stimulated |  |  |  | N=C(N)NCCC[C@@H]1NC(=O)[C@@H](Cc2ccccc2)NC(=O)[C@H](Cc2c[nH]cn2)NC(=O)[C@@H]2CCCN2C(=O)[C@H]2CCCN2C(=O)[C@H](Cc2c[nH]c3ccccc23)NC1=O [MDE5-147-2c, c[Pro-His-DPhe-Arg-Trp-DPro]] (cyclo(PH[dF]RW[dP])) | stimulated a fraction of the maximal NDP-MSH response | mMC4R percent maximal stimulatory response at 100 μM (mMC4R): 65% @; mMC4R percent maximal stimulatory response at 100 μM (mMC4R; listed as MDES-147-2c): 65%; mMC3R percent maximal stimulatory response at 100 μM (mMC3R): 60% @; mMC3R percent maximal stimulatory response at 100 μM (mMC3R; listed as MDES-147-2c): 60% |
| 400 ± 200 | 40 ± 10 | partially stimulated | 130 ± 70 | 1140 |  | C[C@@H]1NC(=O)[C@H](CC(N)=O)NC(=O)[C@H](Cc2c[nH]c3ccccc23)NC(=O)[C@H](CCCNC(=N)N)NC(=O)[C@@H](Cc2ccccc2)NC(=O)[C@@H]2CCCN2C(=O)[C@H]2CCCN2C(=O)[C@H](Cc2ccccc2)NC1=O [MDE5-149-1c, c[Pro-DPhe-Arg-Trp-Asn-Ala-Phe-DPro]] (cyclo(P[dF]RWNAF[dP])) |  | decreased agonist potency at mMC5R relative to MDE5-149-2c (mMC5R): 90 fold; decreased agonist potency at mMC4R relative to MDE5-149-2c (mMC4R): 90 fold |
| 0.35 | 0.45 |  | 1.4 |  | 32 | C[C@@H]1NC(=O)[C@H](CC(N)=O)NC(=O)[C@H](Cc2c[nH]c3ccccc23)NC(=O)[C@H](CCCNC(=N)N)NC(=O)[C@@H](Cc2ccccc2)NC(=O)[C@H](Cc2cnc[nH]2)NC(=O)[C@@H]2CCCN2C(=O)[C@H]2CCCN2C(=O)[C@H](Cc2ccccc2)NC1=O [MDE5-149-2c, c[Pro-His-DPhe-Arg-Trp-Asn-Ala-Phe-DPro]] (cyclo(H[dF]RWNAF[dP]P)) |  | selectivity for the mMC4R over the mMC3R (mMC4R): 23 fold |
| 190 | 46 ± 6 | partial agonist | 100 |  | 3000 | C[C@@H]1NC(=O)[C@H](CN)NC(=O)[C@H](Cc2c[nH]c3ccccc23)NC(=O)[C@H](CCCNC(=N)N)NC(=O)[C@@H](Cc2ccccc2)NC(=O)[C@@H]2CCCN2C(=O)[C@H]2CCCN2C(=O)[C@H](Cc2ccccc2)NC1=O [MDE5-151-1c, c[Pro-DPhe-Arg-Trp-Dap-Ala-Phe-DPro]] (cyclo(P[dF]RW[Dap]AF[dP])) | full agonist | agonist activity/efficacy at mMC1R (in words) (mMC1R): partial agonist |
| 24 | 18 ± 2 | full agonist | 23 | 70 | 260 | C[C@@H]1NC(=O)[C@H](CN)NC(=O)[C@H](Cc2c[nH]c3ccccc23)NC(=O)[C@H](CCCNC(=N)N)NC(=O)[C@@H](Cc2ccccc2)NC(=O)[C@H](Cc2c[nH]cn2)NC(=O)[C@@H]2CCCN2C(=O)[C@H]2CCCN2C(=O)[C@H](Cc2ccccc2)NC1=O [MDE5-151-2c, c[Pro-His-DPhe-Arg-Trp-Dap-Ala-Phe-DPro]] (cyclo(PH[dF]RW[Dap]AF[dP])) | partial agonist | agonist activity/efficacy at mMC1R (in words) (mMC1R): full agonist |
|  |  | partially stimulated |  |  |  | C[C@@H]1NC(=O)[C@H](CC(N)=O)NC(=O)[C@H](Cc2c[nH]c3ccccc23)NC(=O)[C@H](CCCNC(=N)N)NC(=O)[C@@H](Cc2ccccc2)NC(=O)[C@@H]2CCCN2C(=O)[C@H]2CCCN2C1=O [MDE6-3-1c, c[Pro-DPhe-Arg-Trp-Asn-Ala-DPro]] (cyclo(P[dF]RWNA[dP])) |  | selectivity for the mMC4R over the mMC3R (mMC4R): > 100 fold; mMC3R percent maximal stimulatory response at 100 μM (mMC3R): 55% @ |
|  |  |  |  | 34 | 300 | C[C@@H]1NC(=O)[C@H](CC(N)=O)NC(=O)[C@H](Cc2c[nH]c3ccccc23)NC(=O)[C@H](CCCNC(=N)N)NC(=O)[C@@H](Cc2ccccc2)NC(=O)[C@H](Cc2c[nH]cn2)NC(=O)[C@@H]2CCCN2C(=O)[C@H]2CCCN2C1=O [MDE6-3-2c, c[Pro-His-DPhe-Arg-Trp-Asn-Ala-DPro]] (cyclo(PH[dF]RWNA[dP])) |  | decreased agonist potency at mMC5R relative to MDE5-149-2c (mMC5R): 5 fold; decreased agonist potency at mMC4R relative to MDE5-149-2c (mMC4R): 21 fold; decreased agonist potency at mMC3R relative to MDE5-149-2c (mMC3R; relative to MDE5-149-2c): 9 fold |
| 600 | 48 | partially stimulated | 150 ± 10 |  |  | C[C@@H]1NC(=O)[C@H](CN)NC(=O)[C@H](Cc2c[nH]c3ccccc23)NC(=O)[C@H](CCCNC(=N)N)NC(=O)[C@@H](Cc2ccccc2)NC(=O)[C@@H]2CCCN2C(=O)[C@H]2CCCN2C1=O [MDE6-5-1c, c[Pro-DPhe-Arg-Trp-Dap-Ala-DPro]] (cyclo(P[dF]RW[Dap]A[dP])) |  | agonist activity/efficacy at mMC1R (in words) (mMC1R): full agonist |
|  |  |  |  | 143 | 510 | N=C(N)NCCC[C@@H]1NC(=O)[C@@H](Cc2ccccc2)NC(=O)[C@H](Cc2c[nH]cn2)NC(=O)[C@@H]2CCCN2C(=O)[C@H]2CCCN2C(=O)[C@H](CC(N)=O)NC(=O)[C@H](Cc2c[nH]c3ccccc23)NC1=O [MDE6-10-2c, c[Pro-His-DPhe-Arg-Trp-Asn-DPro]] (cyclo(PH[dF]RWN[dP])) |  | decreased agonist potency at mMC5R relative to MDE5-149-2c (mMC5R): 37 fold; decreased agonist potency at mMC4R relative to MDE5-149-2c (mMC4R): 121 fold |

| SMILES | EC50 (mMC1R) [nM] | EC50 (mMC5R) [nM] | agonist activity/efficacy at mMC3R (in words) (mMC3R) | EC50 (mMC4R) [nM] | decreased agonist potency at mMC1R relative to MDE5-149-2c (mMC1R) [fold] | EC50 (mMC3R) [nM] | agonist activity/efficacy at mMC4R (in words) (mMC4R) | other results |
| --- | --- | --- | --- | --- | --- | --- | --- | --- |
| N=C(N)NCCC[C@@H]1NC(=O)[C@@H](Cc2ccccc2)NC(=O)[C@@H]2CCCN2C(=O)[C@H]2CCCN2C(=O)[C@H](CC(N)=O)NC(=O)[C@H](Cc2c[nH]c3ccccc23)NC1=O [MDE6-10-1c, c[Pro-DPhe-Arg-Trp-Asn-DPro]] (cyclo(P[dF]RWN[dP])) | 40 |  | no agonist activity; also recorded: did not possess agonist activity | 1100 |  |  |  | agonist activity/efficacy at mMC5R (in words) (mMC5R): partially stimulated; decreased potency at mMC4R relative to MDE5-149-1c (mMC4R; decrease relative to MDE5-149-1c): 8 fold; selectivity for the mMC1R over the mMC3R (mMC1R; agonist potency): > 2500 fold; selectivity for the mMC1R over the mMC5R (mMC1R; agonist potency): > 1000 fold; increased agonist potency at mMC1R over MDE5-149-1c (mMC1R; increase over MDE5-149-1c): 10 fold |
| N=C(N)NCCC[C@@H]1NC(=O)[C@@H](Cc2ccccc2)NC(=O)[C@@H]2CCCN2C(=O)[C@H]2CCCN2C(=O)[C@H](CN)NC(=O)[C@H](Cc2c[nH]c3ccccc23)NC1=O [MDE6-12-1c, c[Pro-DPhe-Arg-Trp-Dap-DPro]] (cyclo(P[dF]RW[Dap][dP])) | 110 |  | no observable activity; also recorded: did not possess agonist activity; also recorded: no agonist activity |  |  |  | stimulated a fraction of the maximal NDP-MSH response; also recorded: partially stimulated | agonist activity/efficacy at mMC5R (in words) (mMC5R): no observable activity; also recorded: unable to stimulate; also recorded: no agonist activity; mMC4R percent maximal stimulatory response at 100 μM (mMC4R): 35%; mMC1R partial agonist, percent maximal NDP stimulation (mMC1R; PA, relative to maximal NDP-MSH response): PA, 75%; selectivity for the mMC1R over the other receptors (mMC1R; over mMC3R, mMC4R, mMC5R): > 500 fold |

— patent US11124541B2, “Chimeric melanocortin ligands and methods of use thereof” (REGENTS OF THE UNIVERSITY OF MINNESOTA, priority 2016, dated 2021)
